The source of these data is patent publication US8710089B2, “Triazole derivatives as ghrelin analogue ligands of growth hormone secretagogue receptors” (Zentaris GmbH, priority 2005, dated 2014).

T1 sequence (Q92847 whole entry): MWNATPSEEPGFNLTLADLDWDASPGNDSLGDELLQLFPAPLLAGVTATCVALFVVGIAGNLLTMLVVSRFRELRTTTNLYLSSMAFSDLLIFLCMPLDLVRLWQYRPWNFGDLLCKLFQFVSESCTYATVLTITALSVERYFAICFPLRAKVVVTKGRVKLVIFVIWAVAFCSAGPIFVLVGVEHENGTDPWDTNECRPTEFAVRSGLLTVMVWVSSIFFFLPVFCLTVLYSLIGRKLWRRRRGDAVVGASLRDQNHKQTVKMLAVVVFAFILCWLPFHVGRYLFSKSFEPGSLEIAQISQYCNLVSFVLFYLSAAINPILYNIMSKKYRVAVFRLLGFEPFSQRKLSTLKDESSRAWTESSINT

The assay concerns the target T1, human GHS-R 1a (Homo sapiens, UniProt Q92847).
T1 construct: expressed in transfected cells; host or cells: LLC PK-1 porcine renal epithelial cells (ECACC No. 86121112), isolated plasma membranes
Briefly: GHS-R 1a receptor-ligand binding assay (membrane preparations from transfected LLC PK-1 cells). The settings on record: displacement of 125I-His9-ghrelin (60 pM); membranes of LLC PK-1 cells transfected with human GHS-R 1a; mean of at least two independent experiments in triplicates. Here is the method: (J. Med. […] Med. Chem. 2003, 46: 1191-1203), were incubated in homogenization buffer HB [50 mM Tris (pH 7.3), 5 mM MgCl2, 2.5 mM EDTA, and 30 μg/mL bacitracin (Sigma)] for 60 min at 25° C. (steady-state conditions) with 60 pM ^125I-[…]-ghrelin (Amersham) in the presence or absence of competing compounds (compounds of the invention). […] Nonspecific binding was defined using an excess (10^-6 M) of ghrelin. The binding reaction was stopped by addition of 4 mL of ice-cold HB followed by rapid filtration over Whatman GP/C filters presoaked with 0.5% polyethyleneimine to prevent excessive binding of radioligand to the filters. […] IC50 values given are the mean of at least two independent experiments performed in triplicates.
The term IC50 denotes the midpoint of a concentration-inhibition curve. Low values mean greater potency in that assay, high ones weaker potency in that assay. In turn, `COc1ccc(Cn2c(CCc3ccccc3)nnc2[C@@H](Cc2c[nH]c3ccccc23)NC(=O)c2ccccn2)cc1` [compound 79, (R)—N-(1-(4-(4-methoxybenzyl)-5-phenethyl-4H-1,2,4-triazol-3-yl)-2-(1H-indol-3-yl)ethyl)picolinamide] came in with an IC50 of 0.7 nM. For `COc1cccc(Cn2c(CCCc3c[nH]c4ccccc34)nnc2[C@@H](Cc2c[nH]c3ccccc23)NC(=O)C(C)(C)N)c1` [compound 10, (R)—N-(1-(5-(3-(1H-indol-3-yl)propyl)-4-(3-methoxybenzyl)-4H-1,2,4-triazol-3-yl)-2-(1H-indol-3-yl)ethyl)-2-amino-2-methylpropanamide], the IC50 was 32 nM. Compared with the last compound, the IC50 is about 46-fold higher. Compound `CCc1ccc(-n2c(CCc3c[nH]c4ccccc34)nnc2[C@@H](Cc2c[nH]c3ccccc23)NC(=O)Cc2ccccn2)cc1` [compound 148, N—((R)-1-(5-(2-(1H-indol-3-yl)ethyl)-4-(4-ethylphenyl)-4H-1,2,4-triazol-3-yl)-2-(1H-indol-3-yl)ethyl)-2-(pyridin-2-yl)acetamide] returned an IC50 of 96 nM. The same measure for `COc1ccc(Cn2c(CCc3c[nH]c4ccccc34)nnc2[C@@H](Cc2c[nH]c3ccccc23)NC(=O)CN)cc1` [compound 152, N—((R)-1-(5-(2-(1H-indol-3-yl)ethyl)-4-(4-methoxybenzyl)-4H-1,2,4-triazol-3-yl)-2-(1H-indol-3-yl)ethyl)-2-aminoacetamide]: 138 nM; for `CCc1ccc(Cn2c(CCc3ccccc3)nnc2[C@@H](Cc2c[nH]c3ccccc23)NC(=O)Cc2ccccn2)cc1` [compound 82, (R)—N-(1-(4-(4-ethylbenzyl)-5-phenethyl-4H-1,2,4-triazol-3-yl)-2-(1H-indol-3-yl)ethyl)-2-(pyridin-2-yl)acetamide]: 51 nM. The same measure for `CC(C)(N)C(=O)N[C@H](Cc1c[nH]c2ccccc12)c1nnc(CCc2c[nH]c3ccccc23)n1CCc1ccccc1` [compound 2, (R)—N-(1-(5-(2-(1H-indol-3-yl)ethyl)-4-phenethyl-4H-1,2,4-triazol-3-yl)-2-(1H-indol-3-yl)ethyl)-2-amino-2-methylpropanamide]: 81 nM; for `CC(C)(N)C(=O)N[C@H](Cc1c[nH]c2ccccc12)c1nnc(CCc2c[nH]c3ccccc23)n1-c1ccccc1` [compound 175, N—((R)-1-(5-(2-(1H-indol-3-yl)ethyl)-4-phenyl-4H-1,2,4-triazol-3-yl)-2-(1H-indol-3-yl)ethyl)-2-amino-2-methylpropanamide]: 140 nM; for `CC(C)(N)C(=O)N[C@H](Cc1c[nH]c2ccccc12)c1nnc(CCCc2c[nH]c3ccccc23)n1Cc1ccc(Br)cc1` [compound 14, (R)—N-(1-(5-(3-(1H-indol-3-yl)propyl)-4-(4-bromobenzyl)-4H-1,2,4-triazol-3-yl)-2-(1H-indol-3-yl)ethyl)-2-amino-2-methylpropanamide]: 150 nM. As to `CC(C)(N)C(=O)N[C@H](Cc1c[nH]c2ccccc12)c1nnc(CCc2c[nH]c3ccccc23)n1Cc1ccc(F)cc1` [compound 29, (R)—N-(1-(5-(2-(1H-indol-3-yl)ethyl)-4-(4-fluorobenzyl)-4H-1,2,4-triazol-3-yl)-2-(1H-indol-3-yl)ethyl)-2-amino-2-methylpropanamide], the IC50 was 66 nM. In the case of `CCCCCCn1c(CCCc2c[nH]c3ccccc23)nnc1[C@@H](Cc1c[nH]c2ccccc12)NC(=O)C(C)(C)N` [compound 16, (R)—N-(1-(5-(3-(1H-indol-3-yl)propyl)-4-hexyl-4H-1,2,4-triazol-3-yl)-2-(1H-indol-3-yl)ethyl)-2-amino-2-methylpropanamide] it was 240 nM. As to `CC(C)(N)C(=O)N[C@H](Cc1c[nH]c2ccccc12)c1nnc(CCc2c[nH]c3ccccc23)n1Cc1cccc2ccccc12` [compound 5, (R)—N-(1-(5-(2-(1H-indol-3-yl)ethyl)-4-(naphthalen-1-ylmethyl)-4H-1,2,4-triazol-3-yl)-2-(1H-indol-3-yl)ethyl)-2-amino-2-methylpropanamide], the half-inhibitory concentration (IC50) is 125 nM.

For `COc1ccc(Cn2c(CCc3ccccc3)nnc2[C@@H](Cc2c[nH]c3ccccc23)NC(=O)[C@@H]2CCCN2)cc1` [compound 46, (S)—N—((R)-1-(4-(4-methoxybenzyl)-5-phenethyl-4H-1,2,4-triazol-3-yl)-2-(1H-indol-3-yl)ethyl)pyrrolidine-2-carboxamide], the IC50 worked out at 12 nM. `COc1ccc(Cn2c(CCc3ccccc3)nnc2[C@@H](Cc2c[nH]c3ccccc23)NC(=O)C2CCNCC2)c(OC)c1` [compound 62, (R)—N-(1-(4-(2,4-dimethoxybenzyl)-5-phenethyl-4H-1,2,4-triazol-3-yl)-2-(1H-indol-3-yl)ethyl)piperidine-4-carboxamide]: the IC50 was 0.9 nM.

For `COc1ccc(Cn2c(CCc3c[nH]c4ccccc34)nnc2[C@@H](Cc2c[nH]c3ccccc23)NC(=O)C2CCCCC2N)c(OC)c1` (stereo partly drawn) [compound 86, (R)—N-(1-(5-(2-(1H-indol-3-yl)ethyl)-4-(2,4-dimethoxybenzyl)-4H-1,2,4-triazol-3-yl)-2-(1H-indol-3-yl)ethyl)-2-cis-aminocyclohexanecarboxamide], the half-maximal inhibitory concentration (IC50) was 143 nM. The same measure for `O=C(N[C@H](Cc1c[nH]c2ccccc12)c1nnc(CCc2c[nH]c3ccccc23)n1-c1ccccc1)c1ccccn1` [compound 157, N—((R)-1-(5-(2-(1H-indol-3-yl)ethyl)-4-phenyl-4H-1,2,4-triazol-3-yl)-2-(1H-indol-3-yl)ethyl)picolinamide]: 160 nM; for `COc1cccc(Cn2c(CCc3c[nH]c4ccccc34)nnc2[C@@H](Cc2c[nH]c3ccccc23)NC(=O)C(C)(C)N)c1` [compound 6, (R)—N-(1-(5-(2-(1H-indol-3-yl)ethyl)-4-(3-methoxybenzyl)-4H-1,2,4-triazol-3-yl)-2-(1H-indol-3-yl)ethyl)-2-amino-2-methylpropanamide]: 18 nM. In turn, `O=C(N[C@H](Cc1c[nH]c2ccccc12)c1nnc(CCc2c[nH]c3ccccc23)n1-c1ccccc1)C1CCNCC1` [compound 158, N—((R)-1-(5-(2-(1H-indol-3-yl)ethyl)-4-phenyl-4H-1,2,4-triazol-3-yl)-2-(1H-indol-3-yl)ethyl)piperidine-4-carboxamide] had an IC50 of 70 nM. In turn, `Cc1ccc(Cn2c(CCc3ccccc3)nnc2[C@@H](Cc2c[nH]c3ccccc23)NC(=O)C(C)(C)N)cc1` [compound 37, (R)—N-(1-(4-(4-methylbenzyl)-5-phenethyl-4H-1,2,4-triazol-3-yl)-2-(1H-indol-3-yl)ethyl)-2-amino-2-methylpropanamide] gave an IC50 of 136 nM. This IC50 lies about 1.9-fold higher than the previous one.

`COc1ccc(Cn2c(CCc3ccccc3)nnc2[C@@H](Cc2c[nH]c3ccccc23)NC(=O)c2ccncc2)cc1` [compound 77, (R)—N-(1-(4-(4-methoxybenzyl)-5-phenethyl-4H-1,2,4-triazol-3-yl)-2-(1H-indol-3-yl)ethyl)isonicotinamide]: the IC50 came to 119 nM. For the compound `COc1cc(Cn2c(Cc3ccccc3)nnc2[C@@H](Cc2c[nH]c3ccccc23)NC(=O)C(C)(C)N)cc(OC)c1` [compound 108, (R)—N-(1-(4-(3,5-dimethoxybenzyl)-5-benzyl-4H-1,2,4-triazol-3-yl)-2-(1H-indol-3-yl)ethyl)-2-amino-2-methylpropanamide], the IC50 was 250 nM. This IC50 lies about 2.1-fold higher than the previous one. `CC(C)(N)C(=O)N[C@H](Cc1c[nH]c2ccccc12)c1nnc(CCc2c[nH]c3ccccc23)n1Cc1ccccc1` [compound 8, (R)—N-(1-(5-(2-(1H-indol-3-yl)ethyl)-4-benzyl-4H-1,2,4-triazol-3-yl)-2-(1H-indol-3-yl)ethyl)-2-amino-2-methylpropanamide]: the IC50 worked out at 18 nM. `COc1ccc(Cn2c(CCc3ccccc3)nnc2[C@@H](Cc2c[nH]c3ccccc23)NC(=O)[C@@H]2CCCNC2)cc1` [compound 42, (R)—N—((R)-1-(4-(4-methoxybenzyl)-5-phenethyl-4H-1,2,4-triazol-3-yl)-2-(1H-indol-3-yl)ethyl)piperidine-3-carboxamide] displayed an IC50 of 7 nM. This IC50 is about 2.6-fold lower than that of the compound before. On to `CC(C)(N)C(=O)N[C@H](Cc1c[nH]c2ccccc12)c1nnc(Cc2ccccc2)n1Cc1cccc2ccccc12` [compound 4, (R)—N-(1-(5-benzyl-4-(naphthalen-1-ylmethyl)-4H-1,2,4-triazol-3-yl)-2-(1H-indol-3-yl)ethyl)-2-amino-2-methylpropanamide], for which the IC50 was 220 nM. In turn, `Cc1ccc(Cn2c(CCCc3ccccc3)nnc2[C@@H](Cc2c[nH]c3ccccc23)NC(=O)C(C)(C)N)cc1` [compound 33, (R)—N-(1-(4-(4-methylbenzyl)-5-(3-phenylpropyl)-4H-1,2,4-triazol-3-yl)-2-(1H-indol-3-yl)ethyl)-2-amino-2-methylpropanamide] yielded an IC50 of 30 nM. Compound `COc1ccccc1Cn1c(CCc2c[nH]c3ccccc23)nnc1[C@@H](Cc1c[nH]c2ccccc12)NC(=O)C(C)(C)N` [compound 25] gave an IC50 of 96 nM. Compared with the last compound, the IC50 is about 3.2-fold higher. `Cc1ccc(Cn2c(CCc3c[nH]c4ccccc34)nnc2[C@@H](Cc2c[nH]c3ccccc23)NC(=O)C(C)(C)N)cc1` [compound 34, (R)—N-(1-(5-(2-(1H-indol-3-yl)ethyl)-4-(4-methylbenzyl)-4H-1,2,4-triazol-3-yl)-2-(1H-indol-3-yl)ethyl)-2-amino-2-methylpropanamide] gave a concentration for half-maximal inhibition (IC50) of 28 nM. In the case of `COc1ccc(Cn2c(CCc3ccccc3)nnc2[C@@H](Cc2c[nH]c3ccccc23)NC(=O)CCN)cc1` [compound 56, (R)—N-(1-(4-(4-methoxybenzyl)-5-phenethyl-4H-1,2,4-triazol-3-yl)-2-(1H-indol-3-yl)ethyl)-3-aminopropanamide] it was 59 nM.
